Tests used:
[1] = system: HepG2; assay: Hypolipidemic activity in sodium oleate and sodium palmitate induced human HepG2 cells assessed as decrease in intracellular lipid content at 50 uM by Oil Red O staining based assay; format: functional; design: scale not given: the % may be the effect or the level left
[2] = system: HepG2; assay: Hypolipidemic activity in sodium oleate and sodium palmitate induced human HepG2 cells assessed as decrease in intracellular lipid content at 5 uM by Oil Red O staining based assay; format: functional; design: scale not given: the % may be the effect or the level left
[3] = system: HepG2; assay: Hypolipidemic activity in sodium oleate and sodium palmitate induced human HepG2 cells assessed as decrease in intracellular lipid content at 0.025 mg/ml by Oil Red O staining based assay; format: functional; design: scale not given: the % may be the effect or the level left
[4] = target: T1, Pancreatic triacylglycerol lipase (Homo sapiens) (UniProt P16233); assay: Inhibition of Pancreatic lipase (unknown origin) using 4-methylumbelleallyl oleate as substrate at 5 uM by microplate reader assay
T1 sequence (whole entry): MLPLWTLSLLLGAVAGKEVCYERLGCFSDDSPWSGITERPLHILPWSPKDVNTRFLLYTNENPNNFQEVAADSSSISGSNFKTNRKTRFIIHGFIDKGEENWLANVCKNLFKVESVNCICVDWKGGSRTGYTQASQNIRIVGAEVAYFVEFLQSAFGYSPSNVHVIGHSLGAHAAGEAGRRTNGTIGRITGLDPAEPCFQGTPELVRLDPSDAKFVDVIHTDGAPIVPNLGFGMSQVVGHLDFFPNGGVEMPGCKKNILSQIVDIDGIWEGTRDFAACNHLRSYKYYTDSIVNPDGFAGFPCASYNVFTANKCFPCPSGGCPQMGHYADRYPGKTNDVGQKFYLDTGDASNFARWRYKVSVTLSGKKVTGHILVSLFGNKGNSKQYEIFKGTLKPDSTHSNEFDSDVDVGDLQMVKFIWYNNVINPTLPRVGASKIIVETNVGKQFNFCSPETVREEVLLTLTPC

[5] = system: HepG2; assay: Cytotoxicity against human HepG2 cells assessed as reduction in cell survival at 50 uM; format: toxicity, cell-based; conditions: hepg2, 50 µM
[6] = target: T1, Pancreatic triacylglycerol lipase (Homo sapiens); assay: Inhibition of Pancreatic lipase (unknown origin) using 4-methylumbelleallyl oleate as substrate at 50 uM by microplate reader assay

Structure (SMILES) | Activity [1] [%] | Activity [2] [%] | Activity [3] [%] | inhibition [4] [%] | Activity [5] | inhibition [6] [%]
CC[C@H](C)C(=O)O[C@H]1C[C@@H](C)C=C2C=C[C@H](C)[C@H](CC[C@@H]3C[C@@H](O)CC(=O)O3)[C@H]21 [LOVASTATIN] | 89.3 | 76.9 | 97 | – | – | –
O=c1cc(-c2ccc(O)c(O)c2)oc2cc(O[C@@H]3O[C@H](CO)[C@@H](O)[C@H](O)[C@H]3O)cc(O)c12 [GALUTEOLIN] | 53.2 | 62.5 | – | 18.1 | Non-Toxic | 49.5
O=C(O)CC(=O)OC[C@H]1O[C@@H](Oc2cc(O)c3c(=O)cc(-c4ccc(O)c(O)c4)oc3c2)[C@H](O)[C@@H](O)[C@@H]1O | 57.1 | 61.5 | – | – | Non-Toxic | 65.8

Source: ChEMBL document CHEMBL5321223, “Effects and mechanism of action of Chrysanthemum morifolium (Jinsi Huangju) on hyperlipidemia and non-alcoholic fatty liver disease” (Eur J Med Chem, 2023)
